The source of these data is patent publication US20050288347A1, “Certain triazole-based compounds, compositions, and uses thereof” (priority 2004, published 2005).

“Also recorded” adds a separate entry of the source.

The assay concerns protein kinase. The assay can be described thus: HTS ATP-utilizing enzyme assay, off-chip mobility-shift format (Caliper HTS 250). It counts as biochemical, human. Particulars: test compound 10 μM; for protein kinase against which the compound exhibits inhibitory activity (Table 3): active = activity greater than three-sigma from the mean of the predominately inactive population for that enzyme; for Kinase: kinase(s) for which the compound exhibits protein kinase inhibitory activity, active = greater than three-sigma from the mean activity of inactive compounds. In a few lines:
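Single-point screen at 10 μM compound in HEPES pH 7.5 buffer with Triton X-100 and BSA, 2.5 h at 20–22 °C. Substrate-to-phosphopeptide ratio measured by off-chip microfluidic mobility shift; EDTA wells as 100% and DMSO wells as 0% control, hits called at three-sigma limits.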

Regarding `O=C(O)c1ccc(CSc2nnc(-c3cccc(Cl)c3)[nH]2)cc1` [4-((5-(3-chlorophenyl)-4H-1,2,4-triazol-3-ylthio)methyl)benzoic acid], the “protein kinase against which the compound exhibits inhibitory activity (Table 3)” value is listed as “FLT-3; also recorded: DYRK2; also recorded: AURORA-A”.
Consider `FC(F)(F)Oc1ccc(-c2nnc(SCc3ccncc3)[nH]2)cc1` [4-((5-(4-(trifluoromethoxy)phenyl)-4H-1,2,4-triazol-3-ylthio)methyl)pyridine], for which the “protein kinase against which the compound exhibits inhibitory activity (Table 3)” value was “FLT-3; also recorded: c-TAK1; also recorded: GSK3-β”.
For the compound `COc1ccc(-c2nnc(SCc3ccncc3)[nH]2)cc1` [4-((5-(4-methoxyphenyl)-4H-1,2,4-triazol-3-ylthio)methyl)pyridine], the “protein kinase against which the compound exhibits inhibitory activity (Table 3)” value is given as “FLT-3; also recorded: DYRK2; also recorded: GSK3-α”.
`O=[N+]([O-])c1ccc(-c2nnc(SCc3ccncc3)[nH]2)cc1` [4-((5-(4-nitrophenyl)-4H-1,2,4-triazol-3-ylthio)methyl)pyridine]: the “protein kinase against which the compound exhibits inhibitory activity (Table 3)” value is given as “FLT-3; also recorded: GSK3-β; also recorded: GSK3-α”.
Consider `O=C(O)c1ccc(CSc2nnc(-c3cccnc3)[nH]2)cc1` [4-((5-(pyridin-3-yl)-4H-1,2,4-triazol-3-ylthio)methyl)benzoic acid], for which the “protein kinase against which the compound exhibits inhibitory activity (Table 3)” value is reported as “AURORA-A; also recorded: DYRK2”.
For the compound `O=C(O)c1ccc(CSc2nnc(-c3cccs3)[nH]2)cc1` [4-((5-(thiophen-2-yl)-4H-1,2,4-triazol-3-ylthio)methyl)benzoic acid], the “protein kinase against which the compound exhibits inhibitory activity (Table 3)” value is given as “DYRK2; also recorded: AURORA-A; also recorded: FLT-3”.
Regarding `c1csc(-c2nnc(SCc3ccncc3)[nH]2)c1` [4-((5-(thiophen-2-yl)-4H-1,2,4-triazol-3-ylthio)methyl)pyridine], the “protein kinase against which the compound exhibits inhibitory activity (Table 3)” value is on record as “DYRK2; also recorded: AURORA-A; also recorded: FLT-3”.
As to `Cc1cccc(-c2nnc(SCc3ccc(C(=O)O)cc3)[nH]2)c1` [4-((5-m-tolyl-4H-1,2,4-triazol-3-ylthio)methyl)benzoic acid], the “protein kinase against which the compound exhibits inhibitory activity (Table 3)” value is given as “FLT-3; also recorded: DYRK2; also recorded: AURORA-A”.
Take `CC(C)(C)c1nnc(SCc2ccncc2)[nH]1` [4-((5-tert-butyl-4H-1,2,4-triazol-3-ylthio)methyl)pyridine]: the “protein kinase against which the compound exhibits inhibitory activity (Table 3)” value is recorded as “GSK3-α”.
Same read-out and setting: in the case of `CCc1nnc(SCc2ccccc2)n1Cc1ccc2c(c1)OCO2` [4-(benzo[d][1,3]dioxol-5-ylmethyl)-3-(benzylthio)-5-ethyl-4H-1,2,4-triazole] it was “GSK3-β; also recorded: GSK3-α”; in that of `CC(C)=CCSc1nnc(C)n1Cc1ccco1` [4-(furan-2-ylmethyl)-3-methyl-5-(3-methylbut-2-enylthio)-4H-1,2,4-triazole], “GSK3-β; also recorded: GSK3-α”; in that of `C=CCn1c(CCC2CCCC2)nnc1SCC=C(C)C` [4-allyl-3-(2-cyclopentylethyl)-5-(3-methylbut-2-enylthio)-4H-1,2,4-triazole], “DYRK2”.
As for `C=CCn1c(S)nnc1-c1cc(OC)c(OC)c(OC)c1` [4-allyl-5-(3,4,5-trimethoxyphenyl)-4H-1,2,4-triazole-3-thiol], the Kinase entry was “GSK3-β; also recorded: GSK3-α”.
The same measure, in the same setting: in the case of `C=CCn1c(S)nnc1COc1ccc(Cl)cc1` [4-allyl-5-((4-chlorophenoxy)methyl)-4H-1,2,4-triazole-3-thiol] it was “GSK3-α”.
On to `Cc1nnc(SCc2ccccc2)n1Cc1ccccc1` [4-benzyl-3-(benzylthio)-5-methyl-4H-1,2,4-triazole], for which the “protein kinase against which the compound exhibits inhibitory activity (Table 3)” value is on record as “GSK3-β; also recorded: GSK3-α”.
Turning to `CSc1nnc(COc2ccccc2C)n1Cc1ccccc1` [4-benzyl-3-(methylthio)-5-(o-tolyloxymethyl)-4H-1,2,4-triazole], the “protein kinase against which the compound exhibits inhibitory activity (Table 3)” value is listed as “MSK2”.
As for `COc1ccccc1-c1nnc(S)n1Cc1ccccc1` [4-benzyl-5-(2-methoxyphenyl)-4H-1,2,4-triazole-3-thiol], the Kinase entry is listed as “AURORA-A”.
Same read-out and setting: in the case of `COc1ccccc1OCc1nnc(S)n1Cc1ccccc1` [4-benzyl-5-((2-methoxyphenoxy)methyl)-4H-1,2,4-triazole-3-thiol] it was “AURORA-A”.
Same read-out and setting: in the case of `Sc1nnc(CNc2ccc(Cl)cc2)n1Cc1ccccc1` [4-benzyl-5-((4-chlorophenylamino)methyl)-4H-1,2,4-triazole-3-thiol] it was “AURORA-A”.
Take `CCc1ccc(OCc2nnc(S)n2Cc2ccccc2)cc1` [4-benzyl-5-((4-ethylphenoxy)methyl)-4H-1,2,4-triazole-3-thiol]: the Kinase result was “AKT1”.
The same measure, in the same setting: in the case of `Fc1ccc(NCc2nnc(S)n2Cc2ccccc2)cc1` [4-benzyl-5-((4-fluorophenylamino)methyl)-4H-1,2,4-triazole-3-thiol] it was “CHEK2”; in that of `Cc1cccc(-c2nnc(S)n2Cc2ccccc2)c1` [4-benzyl-5-m-tolyl-4H-1,2,4-triazole-3-thiol], “GSK3-α”.
As to `Cc1cccc(OCc2nnc(S)n2C2CCCCC2)c1` [4-cyclohexyl-5-(m-tolyloxymethyl)-4H-1,2,4-triazole-3-thiol], the Kinase entry is “GSK3-α; also recorded: CHEK1; also recorded: AURORA-A”.
As to `CCn1c(COc2ccc(C)cc2)nnc1SCc1ccc(C)cc1` [4-ethyl-3-(4-methylbenzylthio)-5-(p-tolyloxymethyl)-4H-1,2,4-triazole], the “protein kinase against which the compound exhibits inhibitory activity (Table 3)” value is on record as “AURORA-A”.
Turning to `CCn1c(COc2cccc3ccccc23)nnc1SCC(C)C` [4-ethyl-3-(isobutylthio)-5-((naphthalen-1-yloxy)methyl)-4H-1,2,4-triazole], the “protein kinase against which the compound exhibits inhibitory activity (Table 3)” value is “c-TAK1 and CDK1”.
Regarding `CCn1c(S)nnc1COc1ccccc1OC` [4-ethyl-5-((2-methoxyphenoxy)methyl)-4H-1,2,4-triazole-3-thiol], the Kinase entry is recorded as “GSK3-α; also recorded: GSK3-β; also recorded: AURORA-A”.
With `CCn1c(S)nnc1CNc1cccc(C(F)(F)F)c1` [4-ethyl-5-((3-(trifluoromethyl)phenylamino)methyl)-4H-1,2,4-triazole-3-thiol], the Kinase entry is recorded as “GSK3-α”.
With `CCn1c(S)nnc1COc1ccc(OC)cc1` [4-ethyl-5-((4-methoxyphenoxy)methyl)-4H-1,2,4-triazole-3-thiol], the Kinase result was “GSK3-β; also recorded: GSK3-α; also recorded: CDK2-cyclinE”.
With `Cc1ccc(CSc2nnc(-c3ccccc3C)n2C)cc1` [4-methyl-3-(4-methylbenzylthio)-5-o-tolyl-4H-1,2,4-triazole], the “protein kinase against which the compound exhibits inhibitory activity (Table 3)” value was “AKT1”.
`Cn1c(S)nnc1COc1cccc2ccccc12` [4-methyl-5-((naphthalen-1-yloxy)methyl)-4H-1,2,4-triazole-3-thiol]: the Kinase result is given as “GSK3-β; also recorded: GSK3-α”.
As to `Cn1c(S)nnc1COc1ccc2ccccc2c1` [4-methyl-5-((naphthalen-2-yloxy)methyl)-4H-1,2,4-triazole-3-thiol], the Kinase entry is given as “GSK3-α”.
On the same count and under the same terms, in the case of `CCCOc1ccc(CCc2nnc(S)n2-c2ccccc2)cc1` [4-phenyl-5-(4-propoxyphenethyl)-4H-1,2,4-triazole-3-thiol] it was “GSK3-β; also recorded: GSK3-α”.
For `Sc1nnc(-c2ccncc2)n1-c1ccccc1` [4-phenyl-5-(pyridin-4-yl)-4H-1,2,4-triazole-3-thiol], the Kinase result was “LCK”.
Take `CCn1c(S)nnc1CCc1nc2ccccc2[nH]1` [5-(2-(1H-benzo[d]imidazol-2-yl)ethyl)-4-ethyl-4H-1,2,4-triazole-3-thiol]: the Kinase result was “GSK3-β; also recorded: GSK3-α”.
Same read-out and setting: in the case of `Cn1c(S)nnc1CCc1nc2ccccc2[nH]1` [5-(2-(1H-benzo[d]imidazol-2-yl)ethyl)-4-methyl-4H-1,2,4-triazole-3-thiol] it was “GSK3-α; also recorded: GSK3-β”; in that of `Cc1ccc(-n2c(S)nnc2CCc2nc3ccccc3[nH]2)cc1` [5-(2-(1H-benzo[d]imidazol-2-yl)ethyl)-4-p-tolyl-4H-1,2,4-triazole-3-thiol], “GSK3-α; also recorded: GSK3-β”.
Same read-out and setting: in the case of `C=C(C)Cn1c(S)nnc1-c1ccccc1Br` [5-(2-bromophenyl)-4-(2-methylallyl)-4H-1,2,4-triazole-3-thiol] it was “PDGFRR-α”.
Same read-out and setting: in the case of `C=C(C)Cn1c(S)nnc1-c1ccccc1OC` [5-(2-methoxyphenyl)-4-(2-methylallyl)-4H-1,2,4-triazole-3-thiol] it was “CDK2-cyclinE”.
With `COc1ccc(-n2c(S)nnc2-c2ccccc2OC)cc1` [5-(2-methoxyphenyl)-4-(4-methoxyphenyl)-4H-1,2,4-triazole-3-thiol], the Kinase result is “CDK2-cyclinA and CDK2-cyclinE and CDK5”.
For the compound `COc1ccccc1-c1nnc(S)n1C` [5-(2-methoxyphenyl)-4-methyl-4H-1,2,4-triazole-3-thiol], the Kinase result is recorded as “CDK2-cyclinE”.
Still for that read-out and setting: in the case of `COc1ccccc1-c1nnc(S)n1-c1ccc(C)cc1` [5-(2-methoxyphenyl)-4-p-tolyl-4H-1,2,4-triazole-3-thiol] it was “CDK2-cyclinA and CDK2-cyclinE and CDK5”.
The same measure, in the same setting: in the case of `COc1ccccc1-c1nnc(N)[nH]1` [5-(2-methoxyphenyl)-4H-1,2,4-triazol-3-amine] it was “AURORA-A; also recorded: CDK2/CyclinE; also recorded: CHEK2”; in that of `COc1ccc(-c2nnc(S)n2Cc2ccco2)cc1OC` [5-(3,4-dimethoxyphenyl)-4-(furan-2-ylmethyl)-4H-1,2,4-triazole-3-thiol], “MSK2”.
Consider `COc1ccc(-c2nnc(S)n2-c2ccc(C)cc2)cc1` [5-(4-methoxyphenyl)-4-p-tolyl-4H-1,2,4-triazole-3-thiol], for which the Kinase result is on record as “GSK3-β; also recorded: GSK3-α”.
For the compound `COc1ccccc1OCc1nnc(S)n1C` [5-((2-methoxyphenoxy)methyl)-4-methyl-4H-1,2,4-triazole-3-thiol], the Kinase entry is “GSK3-α”.
